Data taken from publication PMC9455146, “Effects of Novel Photosynthetic Inhibitor [CuL2]Br2 Complex on Photosystem II Activity in Spinach” (Cells, 2022).

Molecular target: T1, D1-protein of the PSII reaction center (QB-plastoquinone-herbicide-binding protein) (Spinacia oleracea, UniProt P69560)
T1 construct: gene psbA; native protein in isolated spinach thylakoids; with photosystem II complex
Assay: PSII chlorophyll fluorescence (PAM) in isolated thylakoids; block of Light 1-induced QA- re-oxidation
Type: biochemical

SMILES: CN(C)C(=O)Nc1ccc(Cl)c(Cl)c1 [DCMU, 3-(3,4-dichlorophenyl)-1,1-dimethylurea]
- Concentration blocking Light 1-induced QA- re-oxidation: 0.5 µM
